Data as given in patent publication US20250297135A1, “CERIA AND HYDROXAMIC ACID CMP COMPOSITION” (ENTEGRIS, INC., priority 2024, published 2025).
Read-outs that look alike come from different tables or passages of the source.

Legend:
[1] = pH 5.5
Protocol: (§1) To measure the aqueous solubility, a supersaturated solution of each hydroxamic acid compound was prepared in deionized water. The pH was adjusted to 5.5 using nitric acid and the supersaturated solution was stirred overnight. Excess solids were removed via filtration and the hydroxamic acid compound in solution was quantified using ^1H NMR with a t-BuOH standard.

[2] = Aqueous solubility from supersaturated solution, 1H NMR quantification; details: deionized water, pH adjusted to 5.5 using nitric acid, stirred overnight, filtered
Protocol: as §1

| SMILES | Aqueous Solubility [1] | Aqueous Solubility [2] |
| --- | --- | --- |
| O=C(NO)c1ccc(F)cc1 [4FBHA, 4-Fluorobenzohydroxamic acid] | 1.0% | – |
| Cc1ccccc1C(=O)NO [4MeBHA, methylbenzo hydroxamic acid] | – | 0.5% |
| COc1ccc(CCCCC(=O)NO)cc1 [4pAnisBuHA, 4-(p-anisyl) butyrohydroxamic acid] | 0.5% | – |
